Measured values from ChEMBL document CHEMBL2202954, “The effect of PLC-γ2 inhibitors on the growth of human tumour cells” (2012).

Assays:
Format in all cases: functional
RPMI-8226 = assay: Cytotoxicity against human RPMI8226 cells assessed as cellular growth at 10 uM by SRB assay
SF-268 = assay: Cytotoxicity against human SF268 cells assessed as cellular growth at 10 uM by SRB assay
HCT-15 = assay: Cytotoxicity against human HCT15 cells assessed as cellular growth at 10 uM by SRB assay
HOP-92 = assay: Cytotoxicity against human HOP92 cells assessed as cellular growth at 10 uM by SRB assay
NCI-H522 = assay: Cytotoxicity against human NCI-H522 cells assessed as cellular growth at 10 uM by SRB assay
MDA-MB-435 = assay: Cytotoxicity against human MDA-MB-435 cells assessed as cellular growth at 10 uM by SRB assay
MDA-MB-468 = assay: Cytotoxicity against human MDA-MB-468 cells assessed as cellular growth at 10 uM by SRB assay
HT-29 = assay: Cytotoxicity against human HT-29 cells assessed as cellular growth at 10 uM by SRB assay
OVCAR-4 = assay: Cytotoxicity against human OVCAR4 cells assessed as cellular growth at 10 uM by SRB assay
LOX IMVI = assay: Cytotoxicity against human LOXIMVI cells assessed as cellular growth at 10 uM by SRB assay
PC-3 = assay: Cytotoxicity against human PC3 cells assessed as cellular growth at 10 uM by SRB assay
SNB-75 = assay: Cytotoxicity against human SNB75 cells assessed as cellular growth at 10 uM by SRB assay
HOP-62 = assay: Cytotoxicity against human HOP62 cells assessed as cellular growth at 10 uM by SRB assay
NCI-H322M = assay: Cytotoxicity against human NCI-H322M cells assessed as cellular growth at 10 uM by SRB assay
UACC-257 = assay: Cytotoxicity against human UACC257 cells assessed as cellular growth at 10 uM by SRB assay
KM12 = assay: Cytotoxicity against human KM12 cells assessed as cellular growth at 10 uM by SRB assay
786-0 = assay: Cytotoxicity against human 786-0 cells assessed as cellular growth at 10 uM by SRB assay
UACC-62 = assay: Cytotoxicity against human UACC62 cells assessed as cellular growth at 10 uM by SRB assay
OVCAR-5 = assay: Cytotoxicity against human OVCAR5 cells assessed as cellular growth at 10 uM by SRB assay
SR = assay: Cytotoxicity against human SR cells assessed as cellular growth at 10 uM by SRB assay

| SMILES | Activity (RPMI-8226) [%] | Activity (SF-268) [%] | Activity (HCT-15) [%] | Activity (HOP-92) [%] | Activity (NCI-H522) [%] | Activity (MDA-MB-435) [%] | Activity (MDA-MB-468) [%] | Activity (HT-29) [%] | Activity (OVCAR-4) [%] | Activity (LOX IMVI) [%] | Activity (PC-3) [%] | Activity (SNB-75) [%] | Activity (HOP-62) [%] | Activity (NCI-H322M) [%] | Activity (UACC-257) [%] | Activity (KM12) [%] | Activity (786-0) [%] | Activity (UACC-62) [%] | Activity (OVCAR-5) [%] | Activity (SR) [%] |
| --- | --- | --- | --- | --- | --- | --- | --- | --- | --- | --- | --- | --- | --- | --- | --- | --- | --- | --- | --- | --- |
| Clc1ccccc1Nc1nnc(-c2ccncc2)s1 | 89.16 | 104.7 | 112.25 | 93.87 | 98.62 | 93.62 | 110.42 | 105.3 | 94.51 | 110.09 | 97.24 | 105.58 | 117.96 | 93.72 | 107.89 | 107.17 | 80.21 | 95.3 | 106.94 | – |
| Nc1c(C(=O)NCc2ccccc2)sc2nc3c(cc12)C(=O)CCC3 | 109.76 | 112.13 | 105.31 | 79.65 | 109.84 | – | 116.37 | 116.55 | 117.19 | 103.06 | 106.49 | 113.06 | 115.1 | 123.15 | 106.3 | 106.46 | 110.1 | 115.69 | 113.08 | 116.81 |
| COc1cc(/C=c2/sc3nc4ccccc4n3c2=O)cc(I)c1O | 74.12 | 99.48 | 91.48 | 93.81 | 99.27 | 97.54 | 71.12 | 104.58 | 96.8 | 93.01 | 95.27 | 114.58 | 101.47 | 109.21 | 105.01 | 80.63 | 97.48 | 79.91 | 102.12 | – |
| O=C1N=C(c2ccccc2)S/C1=C\c1ccc2c(c1)OCO2 | 92.67 | 95.75 | 101.73 | 71.22 | 105.96 | 103.92 | 98.71 | 101.51 | 100.96 | 102.92 | 85.65 | 95.66 | 94.43 | 108.21 | 92.39 | 92.95 | 100.46 | 91.01 | 92.58 | – |
| N#Cc1ccc(-n2nnc3ccccc32)cc1C#N | 100.67 | 105 | 99.78 | 103.19 | 88.08 | 85.25 | 99.52 | 108.03 | 110.46 | 99.41 | 100.51 | 120.55 | 94.62 | 111.4 | 89.4 | 96.37 | 99.49 | 94.5 | 110.44 | – |
| O=C(NCc1cccnc1)c1sc2cc([N+](=O)[O-])ccc2c1Cl | 94.49 | 99.64 | 97.65 | 98.76 | 97.09 | 95.22 | 106.53 | 106.56 | 102.6 | 102.15 | 101.92 | 91.37 | 97.3 | 101.48 | 92.34 | 96.39 | 96.95 | 89.48 | 105.26 | – |
| Cc1c(OCC(=O)c2ccccc2)ccc2c1oc(=O)c1ccccc12 | 107.85 | 100.71 | 107.13 | 103.71 | 110.46 | 98.4 | 62.01 | 100.17 | 106.31 | 98.34 | 90 | 122.93 | 105.3 | 115.03 | 111.79 | 97.66 | 104.87 | 98.05 | 108.12 | – |
| O=C(NCCc1ccccc1)c1[nH]c2ccccc2c1Cl | 71.07 | 92.71 | 86.01 | 72.64 | 96.12 | 96.07 | 64.9 | 100.49 | 82.6 | 89.47 | 70.3 | 79.43 | 86.43 | 98.86 | 96.54 | 72.97 | 102.69 | 84.19 | 104.54 | – |
| O=C(NCCc1ccc(Cl)cc1)c1[nH]c2ccccc2c1Cl | 96.69 | 97.34 | 101.72 | 81.73 | 101.96 | 98.17 | 108.58 | 100.35 | 89.13 | 96.1 | 88.9 | 89.76 | 85.04 | 106.64 | 100.48 | 94.49 | 106.07 | 81.86 | 117.9 | – |
| Cc1ccc(CNC(=O)c2[nH]c3ccccc3c2Cl)cc1 | 101.73 | 86.83 | 106.3 | 81.7 | 106.22 | – | 106.86 | 100.16 | 101.65 | 97.73 | 93.19 | 123.78 | 90.94 | 111.04 | 101.14 | 89.46 | 102.13 | 100.21 | 108.38 | – |
| CC1(C)CCc2cc(-c3ccn(S(=O)(=O)c4ccc(Cl)cc4)n3)ccc2O1 | 52.06 | 90.72 | 91.33 | 8 | 66.19 | 85.81 | 48.91 | 70.86 | – | 72.15 | 56.8 | 92.32 | 92.92 | 94.19 | 64.88 | 77 | 71.44 | 75.03 | 100.71 | 45.51 |
| CC1(C)CCc2cc(-c3ccn(S(=O)(=O)c4cccc(C(F)(F)F)c4)n3)ccc2O1 | 68.84 | 102.56 | 89.34 | 38.91 | 87.1 | 97.38 | 67.07 | 71.22 | – | 92.84 | 88.93 | 102.76 | 102.63 | 106.64 | 81.69 | 98.53 | 85.72 | 84.21 | 108.57 | 66.68 |
| Cc1ccc(Cl)cc1NC(=O)c1sc2nc3c(cc2c1N)C(=O)CCC3 | 95.05 | 74.86 | 45.91 | 56.86 | 22.92 | -3.04 | 8.44 | 28.78 | 90.15 | 68.07 | 55.81 | 48.01 | 60.95 | 95.72 | 44.88 | 37.01 | 89.229 | 53.09 | 94.25 | 68.85 |
| N#Cc1ccc(NC(=O)c2sc3nc4c(cc3c2N)C(=O)CCC4)cc1 | 95.69 | 102.29 | 100.78 | 95.57 | 102.85 | 97.44 | 97.58 | 84.91 | 105.84 | 111.96 | 106.64 | 113.44 | 100.94 | 102.55 | 105.99 | 101.12 | 97.81 | 99.27 | 89.16 | – |
| Cc1ccc(NC(=O)c2sc3nc(-c4cccs4)ccc3c2N)cc1C | 103.98 | 107.88 | 109.09 | 106.34 | 100.77 | 101.83 | 44.79 | 94.6 | – | 101.98 | 101.43 | 111.99 | 103.01 | 123.82 | 106.65 | 106.51 | 105.46 | 89.05 | 115.16 | 82.09 |
| COc1ccc(S(=O)(=O)n2ccc(-c3ccc4c(c3)CCC(C)(C)O4)n2)cc1 | 49.25 | 94.69 | 97.58 | 61.38 | 55.57 | 74.3 | 36.58 | 84.48 | 52.32 | 79.45 | 78.05 | 83.99 | 112.43 | 101 | 57.41 | 81.91 | 67.61 | 50.48 | 108.8 | – |
| O=C(NCCc1ccccc1)c1cc2cccc([N+](=O)[O-])c2[nH]1 | 88.5 | 106.93 | 86.79 | 84.88 | 84.92 | 109.58 | 90.5 | 99.19 | 75.65 | 85.8 | 77.13 | – | 90.84 | 115.94 | 108.88 | 106.02 | 105.28 | 71.51 | 116.02 | 91.6 |
